Activity calls are given as the source filed them. The rule behind the calls is not given here.

Four molecules from ChEMBL document CHEMBL1157221, “14,15-secopregnane derivatives from the leaves of Solenostemma argel” (J Nat Prod, 2006) can be followed below.

For the assay, the system named is RAW264.7. The assay can be described thus: Antiinflammatory activity against mouse RAW264.7 cells assessed as stimulation LPS-induced TNFalpha release at 100 uM pretreated for 30 mins before LPS challenge by ELISA. The assay is classed as functional, cell-based.

Regarding `COC(=O)C[C@H](O[C@H]1CC[C@@]2(C)C(=CC[C@@H]3[C@@H]2CC[C@]2(C)[C@@H]4[C@H]5CO[C@@]4(C)O[C@@]32O5)C1)O[C@H](C)C(=O)O`, the result was inactive.

In the case of `CO[C@@H]1[C@@H](O)[C@H](O[C@@H]2[C@@H](C)O[C@@H](O[C@H]3[C@@H](OC)C[C@H](O[C@H]4[C@H](O)C[C@H](O[C@H]5CC[C@@]6(C)C(=CC[C@@H]7[C@@H]6CC[C@]6(C)[C@@H]8[C@H]9CO[C@@]8(C)O[C@@]76O9)C5)O[C@@H]4C)O[C@@H]3C)C[C@H]2OC)O[C@H](C)[C@H]1O[C@@H]1O[C@H](CO)[C@@H](O)[C@H](O)[C@H]1O`, the outcome was Active.

On to `CO[C@H]1C[C@H](O[C@H]2CC[C@@]3(COC(C)=O)C(=CC[C@@H]4[C@@H]3CC[C@]3(C)[C@@H]5[C@H]6CO[C@@]5(C)O[C@@]43O6)C2)O[C@H](C)[C@H]1O[C@H]1C[C@H](OC)[C@H](O[C@H]2C[C@@H](O)[C@H](O[C@H]3C[C@@H](OC)[C@H](O[C@@H]4O[C@H](CO)[C@@H](O)[C@H](O)[C@H]4O)[C@@H](C)O3)[C@@H](C)O2)[C@@H](C)O1`, for which the outcome was Active.

Take `CO[C@@H]1[C@@H](O)[C@H](O[C@@H]2[C@@H](C)O[C@@H](O[C@H]3[C@@H](OC)C[C@H](O[C@@H]4[C@@H](C)O[C@@H](O[C@H]5CC[C@@]6(CO)C(=CC[C@@H]7[C@@H]6CC[C@]6(C)[C@@H]8[C@H]9CO[C@@]8(C)O[C@@]76O9)C5)C[C@H]4OC)O[C@@H]3C)C[C@H]2OC)O[C@H](C)[C@H]1O[C@@H]1O[C@H](CO)[C@@H](O)[C@H](O)[C@H]1O`: the result was Active.
